Tested on: Adult and microfilariae B. malayi
Test: In vitro parasite motility assay, B. malayi adult worms and microfilariae
Type: cell-based
Conditions: Brugia malayi, read-out: B. malayi Activity class

SMILES	IC50 [nM]
Cn1cc(S(=O)(=O)Nc2cccc3cccnc23)cn1 [Compound 268, 1-methyl-N-(quinolin-8-yl)-1H-pyrazole-4-sulfonamide]	500 to 5000
O=S(=O)(Nc1cccc2cccnc12)c1cn[nH]c1 [Compound 267, N-(quinolin-8-yl)-1H-pyrazol-4-sulfonamide]	500 to 5000

Tested on: Dirofilaria immitis
Test: Heartworm screen Dirofilaria immitis (stage DiMF/DiL4 not specified in the tables)
Type: cell-based
Conditions: read-out: D. immitis Activity class

SMILES	IC50 [nM]
O=S(=O)(Nc1cccc2cccnc12)c1ncccc1F [Compound 269, 3-fluoro-N-(quinolin-8-yl)pyridine-2-sulfonamide]	500 to 5000
CC(C)(C)c1ccc(S(=O)(=O)Nc2cccc3cccnc23)cn1 [Compound 159, 6-tert-butyl-N-(quinolin-8-yl)pyridine-3-sulfonamide]	200 to 500
Cc1ccc(S(=O)(=O)Nc2cccc3cccnc23)c(C)n1 [Compound 187, 2,6-dimethyl-N-(quinolin-8-yl)pyridine-3-sulfonamide]	500 to 5000
Cc1cccnc1S(=O)(=O)Nc1cccc2cc(N3CCOCC3)cnc12 [Compound 21, 3-methyl-N-(3-morpho-linoquinolin-8-yl)pyridine-2-sulfonamide]	500 to 5000
O=S(=O)(Nc1cccc2cccnc12)c1cc(Cl)ccn1 [Compound 220, 4-chloro-N-(quinolin-8-yl)pyridine-2-sulfonamide]	< 200
Nc1ncccc1S(=O)(=O)Nc1cccc2cccnc12 [Compound 151, 2-amino-N-(quinolin-8-yl)pyridine-3-sulfonamide]	500 to 5000
Cc1ncc(Cl)cc1S(=O)(=O)Nc1cccc2cccnc12 [Compound 181, 5-chloro-2-methyl-N-(quinolin-8-yl)pyridine-3-sulfonamide]	200 to 500
Cc1ccc(S(=O)(=O)Nc2ccc(C)c3cccnc23)nc1 [Compound 58, 5-methyl-N-(5-methyl-quinolin-8-yl)pyridine-2-sulfonamide]	500 to 5000
O=S(=O)(Nc1cccc2cccnc12)c1cc(F)ccn1 [Compound 160, 4-fluoro-N-(quinolin-8-yl)pyridine-2-sulfonamide]	500 to 5000
O=S(=O)(Nc1cccc2cccnc12)c1nccn1C1(C(F)(F)F)CC1 [Compound 168, N-(quinolin-8-yl)-1-(1-(trifluoromethyl)cyclopropyl)-1H-imidazole-2-sulfonamide]	200 to 500
COc1cc(NS(=O)(=O)c2ccc(C)cn2)c2ncccc2c1 [Compound 125, N-(6-methoxy-quinolin-8-yl)-5-methylpyr-idine-2-sulfon-amide]	500 to 5000
O=S(=O)(Nc1c(Cl)ccc2cccnc12)c1ncccc1F [Compound 98, N-(7-chloro-quinolin-8-yl)-3-fluoro-pyridine-2-sulfonamide]	500 to 5000
Cc1cccnc1S(=O)(=O)Nc1cccc2c(C)ccnc12 [Compound 15, 3-methyl-N-(4-methyl-quinolin-8-yl)pyridine-2-sulfonamide]	500 to 5000
Cc1nc(S(=O)(=O)Nc2cccc3cccnc23)ccc1Cl [Compound 184, 5-chloro-6-methyl-N-(quinolin-8-yl)pyridine-2-sulfonamide]	200 to 500
Cc1cc(C)c(S(=O)(=O)Nc2cccc3cccnc23)c(Cl)n1 [Compound 177, 2-chloro-4,6-dimethyl-N-(quinolin-8-yl)pyridine-3-sulfonamide]	500 to 5000
O=S(=O)(Nc1ccc(F)c2cccnc12)c1ncccc1C1CC1 [Compound 48, 3-cyclo-propyl-N-(5-fluoroquin-olin-8-yl)-pyridine-2-sulfonamide]	500 to 5000
CCn1ccnc1S(=O)(=O)Nc1cccc2cc(C)cnc12 [Compound 105, 1-ethyl-N-(3-methylquin-olin-8-yl)-1H-imidazole-2-sulfonamide]	500 to 5000
CCn1cc(C)nc1S(=O)(=O)Nc1cccc2cccnc12 [Compound 191, 1-ethyl-4-methyl-N-(quinolin-8-yl)-1H-imidazole-2-sulfonamide]	200 to 500

SMILES	IC50 [nM]
Cc1cccnc1S(=O)(=O)Nc1cccc2c(C(F)(F)F)ccnc12 [Compound 13, 3-methyl-N-(4-(trifluoro-methyl)quin-olin-8-yl)pyr-idine-2-sulfonamide]	200 to 500
CCn1ccnc1S(=O)(=O)Nc1c(C)ccc2cccnc12 [Compound 102, 1-ethyl-N-(7-methylquin-olin-8-yl)-1H-imidazole-2-sulfonamide]	200 to 500
COc1ccc(NS(=O)(=O)c2ccc(C)cn2)c2ncccc12 [Compound 123, N-(5-methoxy-quinolin-8-yl)-5-methylpyr-idine-2-sulfon-amide]	500 to 5000
CCn1ccnc1S(=O)(=O)Nc1cc(F)cc2cccnc12 [Compound 107, 1-ethyl-N-(6-fluoroquinolin-8-yl)-1H-imidazole-2-sulfonamide]	200 to 500
CCn1ccnc1S(=O)(=O)Nc1cccc2ccc(C)nc12 [Compound 106, 1-ethyl-N-(2-methylquin-olin-8-yl)-1H-imidazole-2-sulfonamide]	200 to 500
O=S(=O)(Nc1cccc2cccnc12)c1ccnc(C(F)(F)F)c1 [Compound 158, N-(quinolin-8-yl)-2-(trifluoromethyl) pyridine-4-sulfonamide]	500 to 5000
CCn1ccnc1S(=O)(=O)Nc1cc(OC)cc2cccnc12 [Compound 117, 1-ethyl-N-(6-methoxyquin-olin-8-yl)-1H-imidazole-2-sulfonamide]	200 to 500
O=S(=O)(Nc1cccc2cccnc12)c1nccn1C1CC1C(F)(F)F (stereo not shown) [Compound 171, N-(quinolin-8-yl)-1-(2-(trifluoromethyl)cyclopropyl)-1H-imidazole-2-sulfonamide]	200 to 500
Nc1cccc(S(=O)(=O)Nc2cccc3cccnc23)n1 [Compound 264, 6-amino-N-(quinolin-8-yl)pyridin-2-sulfonamide]	500 to 5000
O=S(=O)(Nc1cccc2cccnc12)c1cccc(C(F)(F)F)n1 [Compound 156, N-(quinolin-8-yl)-6-(trifluoromethyl) pyridine-2-sulfonamide]	500 to 5000
CN(C)c1cccnc1S(=O)(=O)Nc1cccc2cccnc12 [Compound 208, 3-(dimethylamino)-N-(quinolin-8-yl)pyridine-2-sulfonamide]	500 to 5000
O=S(=O)(Nc1cccc2cccnc12)c1ccc(Cl)nc1C(F)(F)F [Compound 176, 6-chloro-N-(quinolin-8-yl)-2-(trifluoromethyl) pyridine-3-sulfonamide]	500 to 5000
CCn1ccnc1S(=O)(=O)Nc1ccc(C)c2cccnc12 [Compound 83, 1-ethyl-N-(5-methylquin-olin-8-yl)-1H-imidazole-2-sulfonamide]	200 to 500
CC(C)c1cccnc1S(=O)(=O)Nc1cccc2cccnc12 [Compound 211, 3-isopropyl-N-(quinolin-8-yl)pyridine-2-sulfonamide]	500 to 5000
Cc1cnc(C)c(S(=O)(=O)Nc2c(Cl)ccc3cccnc23)n1 [Compound 53, N-(7-chloro-quinolin-8-yl)-3,6-dimethyl-pyrazine-2-sulfonamide]	500 to 5000
CC(C)n1nccc1S(=O)(=O)Nc1c(Cl)ccc2cccnc12 [Compound 77, N-(7-chloro-quinolin-8-yl)-1-iso-propyl-1H-pyrazole-5-sulfonamide]	500 to 5000
Cc1ccc(S(=O)(=O)Nc2cccc3cccnc23)c(Cl)n1 [Compound 188, 2-chloro-6-methyl-N-(quinolin-8-yl)pyridine-3-sulfonamide]	500 to 5000
CN(C)c1cccnc1S(=O)(=O)Nc1cccc2c1NCCC2 [Compound 45, 3-(dimethyl-amino)-N-(1,2,3,4-tetra-hydroquin-olin-8-yl)-pyridine-2-sulfonamide]	500 to 5000

Tested on: Adult and microfilariae B. pahangi
Test: In vitro parasite motility assay, B. pahangi adult worms and microfilariae
Type: cell-based, Brugia pahangi
Conditions: activity against adult filaria (level E)

SMILES	B. phange Activity class
O=S(=O)(Nc1cccc2cccnc12)c1ncccc1F [Compound 269, 3-fluoro-N-(quinolin-8-yl)pyridine-2-sulfonamide]	E (activity against adult filaria at compound concentrations below 1 μM (activity level E))

Same assay, conditions: activity against microfilaria (level D)

SMILES	B. phange Activity class
Cn1cc(S(=O)(=O)Nc2cccc3cccnc23)cn1 [Compound 268, 1-methyl-N-(quinolin-8-yl)-1H-pyrazole-4-sulfonamide]	D (activity against microfilaria at compound concentrations below 1 μM (activity level D))

Tested on: Onchocerca gutturosa adult male worms
Test: Onchocerca gutturosa in vitro screening model: adult worm motility score and MTT/formazan viability
Type: cell-based
Conditions: read-out: O. gutt Activity class

SMILES	IC50 [nM]
O=S(=O)(Nc1cccc2cccnc12)c1ncccc1F [Compound 269, 3-fluoro-N-(quinolin-8-yl)pyridine-2-sulfonamide]	< 200
CC(C)(C)c1ccc(S(=O)(=O)Nc2cccc3cccnc23)cn1 [Compound 159, 6-tert-butyl-N-(quinolin-8-yl)pyridine-3-sulfonamide]	< 200
Cc1ccc(S(=O)(=O)Nc2cccc3cccnc23)c(C)n1 [Compound 187, 2,6-dimethyl-N-(quinolin-8-yl)pyridine-3-sulfonamide]	500 to 5000
Cc1cccnc1S(=O)(=O)Nc1cccc2cc(N3CCOCC3)cnc12 [Compound 21, 3-methyl-N-(3-morpho-linoquinolin-8-yl)pyridine-2-sulfonamide]	< 200
O=S(=O)(Nc1cccc2cccnc12)c1cc(Cl)ccn1 [Compound 220, 4-chloro-N-(quinolin-8-yl)pyridine-2-sulfonamide]	< 200
Nc1ncccc1S(=O)(=O)Nc1cccc2cccnc12 [Compound 151, 2-amino-N-(quinolin-8-yl)pyridine-3-sulfonamide]	500 to 5000
Cc1ncc(Cl)cc1S(=O)(=O)Nc1cccc2cccnc12 [Compound 181, 5-chloro-2-methyl-N-(quinolin-8-yl)pyridine-3-sulfonamide]	500 to 5000
Cc1ccc(S(=O)(=O)Nc2ccc(C)c3cccnc23)nc1 [Compound 58, 5-methyl-N-(5-methyl-quinolin-8-yl)pyridine-2-sulfonamide]	200 to 500
O=S(=O)(Nc1cccc2cccnc12)c1cc(F)ccn1 [Compound 160, 4-fluoro-N-(quinolin-8-yl)pyridine-2-sulfonamide]	< 200
O=S(=O)(Nc1cccc2cccnc12)c1nccn1C1(C(F)(F)F)CC1 [Compound 168, N-(quinolin-8-yl)-1-(1-(trifluoromethyl)cyclopropyl)-1H-imidazole-2-sulfonamide]	< 200
COc1cc(NS(=O)(=O)c2ccc(C)cn2)c2ncccc2c1 [Compound 125, N-(6-methoxy-quinolin-8-yl)-5-methylpyr-idine-2-sulfon-amide]	< 200
O=S(=O)(Nc1c(Cl)ccc2cccnc12)c1ncccc1F [Compound 98, N-(7-chloro-quinolin-8-yl)-3-fluoro-pyridine-2-sulfonamide]	< 200
Cc1cccnc1S(=O)(=O)Nc1cccc2c(C)ccnc12 [Compound 15, 3-methyl-N-(4-methyl-quinolin-8-yl)pyridine-2-sulfonamide]	< 200
Cc1nc(S(=O)(=O)Nc2cccc3cccnc23)ccc1Cl [Compound 184, 5-chloro-6-methyl-N-(quinolin-8-yl)pyridine-2-sulfonamide]	< 200
Cc1cc(C)c(S(=O)(=O)Nc2cccc3cccnc23)c(Cl)n1 [Compound 177, 2-chloro-4,6-dimethyl-N-(quinolin-8-yl)pyridine-3-sulfonamide]	500 to 5000
O=S(=O)(Nc1ccc(F)c2cccnc12)c1ncccc1C1CC1 [Compound 48, 3-cyclo-propyl-N-(5-fluoroquin-olin-8-yl)-pyridine-2-sulfonamide]	< 200
CCn1ccnc1S(=O)(=O)Nc1cccc2cc(C)cnc12 [Compound 105, 1-ethyl-N-(3-methylquin-olin-8-yl)-1H-imidazole-2-sulfonamide]	< 200
CCn1cc(C)nc1S(=O)(=O)Nc1cccc2cccnc12 [Compound 191, 1-ethyl-4-methyl-N-(quinolin-8-yl)-1H-imidazole-2-sulfonamide]	< 200

SMILES	IC50 [nM]
Cc1cccnc1S(=O)(=O)Nc1cccc2c(C(F)(F)F)ccnc12 [Compound 13, 3-methyl-N-(4-(trifluoro-methyl)quin-olin-8-yl)pyr-idine-2-sulfonamide]	< 200
CCn1ccnc1S(=O)(=O)Nc1c(C)ccc2cccnc12 [Compound 102, 1-ethyl-N-(7-methylquin-olin-8-yl)-1H-imidazole-2-sulfonamide]	< 200
COc1ccc(NS(=O)(=O)c2ccc(C)cn2)c2ncccc12 [Compound 123, N-(5-methoxy-quinolin-8-yl)-5-methylpyr-idine-2-sulfon-amide]	< 200
CCn1ccnc1S(=O)(=O)Nc1cc(F)cc2cccnc12 [Compound 107, 1-ethyl-N-(6-fluoroquinolin-8-yl)-1H-imidazole-2-sulfonamide]	< 200
CCn1ccnc1S(=O)(=O)Nc1cccc2ccc(C)nc12 [Compound 106, 1-ethyl-N-(2-methylquin-olin-8-yl)-1H-imidazole-2-sulfonamide]	500 to 5000
O=S(=O)(Nc1cccc2cccnc12)c1ccnc(C(F)(F)F)c1 [Compound 158, N-(quinolin-8-yl)-2-(trifluoromethyl) pyridine-4-sulfonamide]	200 to 500
CCn1ccnc1S(=O)(=O)Nc1cc(OC)cc2cccnc12 [Compound 117, 1-ethyl-N-(6-methoxyquin-olin-8-yl)-1H-imidazole-2-sulfonamide]	500 to 5000
O=S(=O)(Nc1cccc2cccnc12)c1nccn1C1CC1C(F)(F)F (stereo not shown) [Compound 171, N-(quinolin-8-yl)-1-(2-(trifluoromethyl)cyclopropyl)-1H-imidazole-2-sulfonamide]	< 200
Nc1cccc(S(=O)(=O)Nc2cccc3cccnc23)n1 [Compound 264, 6-amino-N-(quinolin-8-yl)pyridin-2-sulfonamide]	500 to 5000
O=S(=O)(Nc1cccc2cccnc12)c1cccc(C(F)(F)F)n1 [Compound 156, N-(quinolin-8-yl)-6-(trifluoromethyl) pyridine-2-sulfonamide]	< 200
CN(C)c1cccnc1S(=O)(=O)Nc1cccc2cccnc12 [Compound 208, 3-(dimethylamino)-N-(quinolin-8-yl)pyridine-2-sulfonamide]	< 200
O=S(=O)(Nc1cccc2cccnc12)c1ccc(Cl)nc1C(F)(F)F [Compound 176, 6-chloro-N-(quinolin-8-yl)-2-(trifluoromethyl) pyridine-3-sulfonamide]	200 to 500
CCn1ccnc1S(=O)(=O)Nc1ccc(C)c2cccnc12 [Compound 83, 1-ethyl-N-(5-methylquin-olin-8-yl)-1H-imidazole-2-sulfonamide]	< 200
CC(C)c1cccnc1S(=O)(=O)Nc1cccc2cccnc12 [Compound 211, 3-isopropyl-N-(quinolin-8-yl)pyridine-2-sulfonamide]	< 200
Cc1cnc(C)c(S(=O)(=O)Nc2c(Cl)ccc3cccnc23)n1 [Compound 53, N-(7-chloro-quinolin-8-yl)-3,6-dimethyl-pyrazine-2-sulfonamide]	500 to 5000
CC(C)n1nccc1S(=O)(=O)Nc1c(Cl)ccc2cccnc12 [Compound 77, N-(7-chloro-quinolin-8-yl)-1-iso-propyl-1H-pyrazole-5-sulfonamide]	200 to 500
Cc1ccc(S(=O)(=O)Nc2cccc3cccnc23)c(Cl)n1 [Compound 188, 2-chloro-6-methyl-N-(quinolin-8-yl)pyridine-3-sulfonamide]	< 200
CN(C)c1cccnc1S(=O)(=O)Nc1cccc2c1NCCC2 [Compound 45, 3-(dimethyl-amino)-N-(1,2,3,4-tetra-hydroquin-olin-8-yl)-pyridine-2-sulfonamide]	500 to 5000

Reference: US20240148744A1 (Celgene Corporation, priority 2021, published 2024)
